Test results: PubChem BioAssay AID1259407 (Chemical Carcinogenesis Research Information System (CCRIS), 2018)
Active and inactive are the calls of the source. How the calls were made is not given here.

Tested on: CCRIS mutagenicity, Ames/micronucleus/aberration tests
Assay: CCRIS mutagenicity studies

Question: What does the source list for ClC(Cl)Br?
Answer: mutagenic call (End Point: Ames Salmonella typhimurium, Test System: TA97, Metabolic Activation: Hamster, liver, S-9 (10 & 30%), Aroclor 1254, Method: Preincubation): inactive; negative; mutagenic call (End Point: Ames Salmonella typhimurium, Test System: TA97, Metabolic Activation: None, Method: Preincubation): inactive; negative; mutagenic call (End Point: Ames Salmonella typhimurium, Test System: TA97, Metabolic Activation: Rat, liver, S-9 (10 & 30%), Aroclor 1254, Method: Preincubation): inactive; negative; mutagenic call (End Point: Ames Salmonella typhimurium, Test System: TA98, Metabolic Activation: Hamster, liver, S-9 (10 & 30%), Aroclor 1254, Method: Preincubation): inactive; negative; mutagenic call (End Point: Ames Salmonella typhimurium, Test System: TA98, Metabolic Activation: None, Method: Preincubation): inactive; negative; mutagenic call (End Point: Ames Salmonella typhimurium, Test System: TA98, Metabolic Activation: Rat, liver, S-9 (10 & 30%), Aroclor 1254, Method: Preincubation): inactive; negative; mutagenic call (End Point: Ames Salmonella typhimurium, Test System: TA100, Metabolic Activation: Hamster, liver, S-9 (10 & 30%), Aroclor 1254, Method: Preincubation): inactive; negative; mutagenic call (End Point: Ames Salmonella typhimurium, Test System: TA100, Metabolic Activation: None, Method: Preincubation): inactive; negative; mutagenic call (End Point: Ames Salmonella typhimurium, Test System: TA100, Metabolic Activation: Rat, liver, S-9 (10 & 30%), Aroclor 1254, Method: Preincubation): inactive; negative; mutagenic call (End Point: Ames Salmonella typhimurium, Test System: TA1535, Metabolic Activation: Hamster, liver, S-9 (10 & 30%), Aroclor 1254, Method: Preincubation): inactive; negative; mutagenic call (End Point: Ames Salmonella typhimurium, Test System: TA1535, Metabolic Activation: None, Method: Preincubation): inactive; negative; mutagenic call (End Point: Ames Salmonella typhimurium, Test System: TA1535, Metabolic Activation: Rat, liver, S-9 (10 & 30%), Aroclor 1254, Method: Preincubation): inactive; negative; mutagenic call (End Point: IN VITRO CHROMOSOMAL ABERRATIONS, Test System: CHINESE HAMSTER LUNG FIBROBLAST CELLS (CHL/IU), Metabolic Activation: RAT, LIVER, S-9, PHENOBARBITAL AND 5,6-BENZOFLAVONE): active; positive (structural changes); mutagenic call (End Point: IN VITRO CHROMOSOMAL ABERRATIONS, Test System: CHO CELLS, Metabolic Activation: NONE): inactive; negative; mutagenic call (End Point: IN VITRO CHROMOSOMAL ABERRATIONS, Test System: CHO CELLS, Metabolic Activation: RAT, LIVER, S-9, AROCLOR 1254): inactive; negative; mutagenic call (End Point: In vivo micronucleus, Test System: Bone marrow polychromatic erythrocytes, Species: Mouse, Strain/Sex: B6C3F1/Male, Route: Intraperitoneal): inactive; negative; strain was inferred; mutagenic call (End Point: In vivo micronucleus, Test System: Peripheral blood normochromatic erythrocytes, Species: Mouse, Strain/Sex: B6C3F1/Female, Route: Oral): inactive; negative; mutagenic call (End Point: In vivo micronucleus, Test System: Peripheral blood normochromatic erythrocytes, Species: Mouse, Strain/Sex: B6.129-Trp53tm1Brd (N5) p53 Haploinsufficient//Male, Route: Oral): inactive; negative; mutagenic call (End Point: In vivo micronucleus, Test System: Peripheral blood normochromatic erythrocytes, Species: Mouse, Strain/Sex: B6.129-Trp53tm1Brd (N5) p53 Haploinsufficient/Female, Route: Oral): inactive; negative; mutagenic call (End Point: In vivo micronucleus, Test System: Peripheral blood normochromatic erythrocytes, Species: Mouse, Strain/Sex: B6.129-Trp53tm1Brd (N5) p53 Haploinsufficient/Male, Route: Oral): inactive; negative, positive results only at 350 mg/l; trend test not significant.; mutagenic call (End Point: In vivo micronucleus, Test System: Peripheral blood normochromatic erythrocytes, Species: Mouse, Strain/Sex: FVB Tg.AC hemizygous/Female, Route: Dermal): inactive; negative; mutagenic call (End Point: In vivo micronucleus, Test System: Peripheral blood normochromatic erythrocytes, Species: Mouse, Strain/Sex: FVB Tg.AC hemizygous/Female, Route: Oral): inactive; negative; mutagenic call (End Point: In vivo micronucleus, Test System: Peripheral blood normochromatic erythrocytes, Species: Mouse, Strain/Sex: FVB Tg.AC hemizygous/Male, Route: Dermal): inactive; negative; mutagenic call (End Point: In vivo micronucleus, Test System: Peripheral blood normochromatic erythrocytes, Species: Mouse, Strain/Sex: FVB Tg.AC hemizygous/Male, Route: Oral): inactive; negative; mutagenic call (End Point: Mouse Lymphoma, Test System: L5178Y (TK+/TK-), Metabolic Activation: None, Method: Suspension/Plate): inactive; negative; mutagenic call (End Point: Mouse Lymphoma, Test System: L5178Y (TK+/TK-), Metabolic Activation: Rat, liver, S-9, Aroclor 1254, Method: Suspension/Plate): active; positive; mutagenic call (Test System: AMES SALMONELLA TYPHIMURIUM, Strain/Indicator: RSJ100, Metabolic Activation: NONE, Method: STANDARD PLATE): active; positive; mutagenic call (Test System: AMES SALMONELLA TYPHIMURIUM, Strain/Indicator: TA97, Metabolic Activation: NONE, Method: STANDARD PLATE): inactive; negative; mutagenic call (Test System: AMES SALMONELLA TYPHIMURIUM, Strain/Indicator: TA97, Metabolic Activation: RAT, LIVER, S-9, AROCLOR 1254, Method: STANDARD PLATE): active; positive; mutagenic call (Test System: AMES SALMONELLA TYPHIMURIUM, Strain/Indicator: TA98, Metabolic Activation: HAMSTER, LIVER, S-9, AROCLOR 1254, Method: PREINCUBATION): inactive; negative; mutagenic call (Test System: AMES SALMONELLA TYPHIMURIUM, Strain/Indicator: TA98, Metabolic Activation: NONE, Method: PREINCUBATION): inactive; negative; mutagenic call (Test System: AMES SALMONELLA TYPHIMURIUM, Strain/Indicator: TA98, Metabolic Activation: NONE, Method: STANDARD PLATE): inactive; negative; mutagenic call (Test System: AMES SALMONELLA TYPHIMURIUM, Strain/Indicator: TA98, Metabolic Activation: RAT, LIVER, S-9, AROCLOR 1254, Method: PREINCUBATION): inactive; negative; mutagenic call (Test System: AMES SALMONELLA TYPHIMURIUM, Strain/Indicator: TA100, Metabolic Activation: HAMSTER, LIVER, S-9, AROCLOR 1254, Method: PREINCUBATION): inactive; negative; mutagenic call (Test System: AMES SALMONELLA TYPHIMURIUM, Strain/Indicator: TA100, Metabolic Activation: NONE, Method: DESICCATOR): active; positive; mutagenic call (Test System: AMES SALMONELLA TYPHIMURIUM, Strain/Indicator: TA100, Metabolic Activation: NONE, Method: FLUCTUATION TEST): inactive; negative; mutagenic call (Test System: AMES SALMONELLA TYPHIMURIUM, Strain/Indicator: TA100, Metabolic Activation: NONE, Method: PREINCUBATION): inactive; negative; mutagenic call (Test System: AMES SALMONELLA TYPHIMURIUM, Strain/Indicator: TA100, Metabolic Activation: NONE, Method: STANDARD PLATE): inactive; negative; mutagenic call (Test System: AMES SALMONELLA TYPHIMURIUM, Strain/Indicator: TA100, Metabolic Activation: RAT, LIVER, S-9, AROCLOR 1254, Method: FLUCTUATION TEST): inactive; negative; mutagenic call (Test System: AMES SALMONELLA TYPHIMURIUM, Strain/Indicator: TA100, Metabolic Activation: RAT, LIVER, S-9, AROCLOR 1254, Method: PREINCUBATION): inactive; negative; mutagenic call (Test System: AMES SALMONELLA TYPHIMURIUM, Strain/Indicator: TA104, Metabolic Activation: NONE, Method: STANDARD PLATE): inactive; negative; mutagenic call (Test System: AMES SALMONELLA TYPHIMURIUM, Strain/Indicator: TA104, Metabolic Activation: RAT, LIVER, S-9, AROCLOR 1254, Method: STANDARD PLATE): active; positive; mutagenic call (Test System: AMES SALMONELLA TYPHIMURIUM, Strain/Indicator: TA1535 (GST+), Metabolic Activation: NONE, Method: STANDARD PLATE): active; positive; mutagenic call (Test System: AMES SALMONELLA TYPHIMURIUM, Strain/Indicator: TA1535 (GST-), Metabolic Activation: NONE, Method: STANDARD PLATE): inactive; negative; mutagenic call (Test System: AMES SALMONELLA TYPHIMURIUM, Strain/Indicator: TA1535, Metabolic Activation: HAMSTER, LIVER, S-9, AROCLOR 1254, Method: PREINCUBATION): inactive; negative; mutagenic call (Test System: AMES SALMONELLA TYPHIMURIUM, Strain/Indicator: TA1535, Metabolic Activation: NONE, Method: PREINCUBATION): inactive; negative; mutagenic call (Test System: AMES SALMONELLA TYPHIMURIUM, Strain/Indicator: TA1535, Metabolic Activation: RAT, LIVER, S-9, AROCLOR 1254, Method: PREINCUBATION): inactive; negative; mutagenic call (Test System: AMES SALMONELLA TYPHIMURIUM, Strain/Indicator: TA1535, Metabolic Activation: RAT, LIVER, S-9, AROCLOR 1254, Method: STANDARD PLATE): inactive; negative; mutagenic call (Test System: AMES SALMONELLA TYPHIMURIUM, Strain/Indicator: TA1537, Metabolic Activation: HAMSTER, LIVER, S-9, AROCLOR 1254, Method: PREINCUBATION): inactive; negative; mutagenic call (Test System: AMES SALMONELLA TYPHIMURIUM, Strain/Indicator: TA1537, Metabolic Activation: NONE, Method: PREINCUBATION): inactive; negative; mutagenic call (Test System: AMES SALMONELLA TYPHIMURIUM, Strain/Indicator: TA1537, Metabolic Activation: NONE, Method: STANDARD PLATE): active; positive; mutagenic call (Test System: AMES SALMONELLA TYPHIMURIUM, Strain/Indicator: TA1537, Metabolic Activation: RAT, LIVER, S-9, AROCLOR 1254, Method: PREINCUBATION): inactive; negative; mutagenic call (Test System: AMES SALMONELLA TYPHIMURIUM, Strain/Indicator: TA1537, Metabolic Activation: RAT, LIVER, S-9, AROCLOR 1254, Method: STANDARD PLATE): inactive; negative; mutagenic call (Test System: MOUSE LYMPHOMA, Strain/Indicator: L5178Y (TK+/TK-), Metabolic Activation: NONE, Method: MICROWELL): inactive; negative; mutagenic call (Test System: MOUSE LYMPHOMA, Strain/Indicator: L5178Y (TK+/TK-), Metabolic Activation: NONE, Method: SUSPENSION/PLATE): inactive; negative; mutagenic call (Test System: MOUSE LYMPHOMA, Strain/Indicator: L5178Y (TK+/TK-), Metabolic Activation: RAT, LIVER, S-9, AROCLOR 1254, Method: SUSPENSION/PLATE): active; positive; mutagenic call (Test System: MOUSE LYMPHOMA, Strain/Indicator: L5178Y (TK+/TK-), Metabolic Activation: S-9, Method: MICROWELL): active; positive; mutagenic call (Test System: UDS RAT HEPATOCYTES, Strain/Indicator: THY INCORP, Metabolic Activation: NONE, Method: AUTORADIOGRAPHY): inactive; negative
